# Values of other authors in patent EP1227812B1 (SCHERING CORPORATION, priority 1999, dated 2001).
# Conditions: eight subjects tested, topical azatadine
smiles,measurement,value
"CN1CCC(=C2c3ccccc3CCc3cccnc32)CC1 [Azatadine, azatadine]",drowsiness,drowsiness in one of the eight subjects tested
